Results on 21 compounds are retold here after ChEMBL document CHEMBL1152415, “Potent antitumor bifunctional DNA alkylating agents, synthesis and biological activities of 3a-aza-cyclopenta[a]indenes” (Bioorg Med Chem, 2009).

For test [1], the system named is CCRF-CEM. In words: Cross-resistance, IC50 for human vinblastine-resistant CCRF-CEM cells to IC50 for human CCRF-CEM cells. The format is functional.
The subject of test [2] is CCRF-CEM. In words: Cytotoxicity against human taxol-resistant CCRF-CEM cells after 72 hrs by XTT assay. Type of test: functional, cell-based.
Test [3] deals with CCRF-CEM. Description: Cytotoxicity against human CCRF-CEM cells after 72 hrs by XTT assay. Type of test: functional, cell-based.
Test [4] deals with CCRF-CEM. Description: Cytotoxicity against human vinblastine-resistant CCRF-CEM cells after 72 hrs by XTT assay. Type of test: functional, cell-based. In general terms: Formazan colour is commonly taken as a measure of viable cells.
Test [5] concerns CCRF-CEM. Description: Cross-resistance, IC50 for human taxol-resistant CCRF-CEM cells to IC50 for human CCRF-CEM cells. The format is functional.
The next test has as its system HCT-116. In words: Cytotoxicity against human HCT116 cells after 72 hrs by SRB assay. Type of test: functional, cell-based. The following applies: HCT-116, 72 h.
A further test deals with MX1. Description: Cytotoxicity against human MX1 cells after 72 hrs by SRB assay. The following applies: MX1, 72 h. The format is functional, cell-based. On the technique in general: The SRB assay estimates cell density from bound dye.
Test [6] is described as follows: Cytotoxicity against human H1299 cells after 72 hrs by WST-1 assay. The format is functional, cell-based. The conditions noted are these: NCI-H1299, 72 h.
The test system of another test is PC-3. In words: Cytotoxicity against human PC3 cells after 72 hrs by WST-1 assay. The conditions noted are these: PC-3, 72 h. Type of test: functional, cell-based.
The nature of test [7]: Cytotoxicity against human OECM1 cells after 72 hrs by WST-1 assay. The following applies: OECM1, 72 h. Type of test: functional, cell-based.
The nature of test [8]: Cytotoxicity against human U87 cells after 72 hrs by WST-1 assay. Type of test: functional, cell-based, U-87MG ATCC. The following applies: U-87 MG.
In the next test the test system is Nucleic Acid. In words: Induction of DNA interstrand cross-linking in human H1299 cells at 100 uM under aerobic condition for 1 hr followed by irradiated with 20 Gy of X-ray by modified comet assay relative to irradiated untreated control. Type of test: cell-based.

In general, IC50 refers to the concentration at which inhibition is half-maximal. For `COc1ccccc1-c1c(CO)c(CO)c2n1-c1ccccc1C2`, the “Ratio IC50” value was 2.6 with CCRF-CEM [1] and 1.9 in the test on CCRF-CEM [5]. Also, the IC50 in the test with CCRF-CEM [2] amounted to 1900 nM; in the test on CCRF-CEM [3] (read-out: IC50), 1000 nM; in the test on CCRF-CEM [4], 2700 nM; in the test with HCT-116, 12000 nM; in the test with MX1, 8700 nM.
Regarding `CNC(=O)OCc1c(COC(=O)NC)c(-c2ccc(F)c(F)c2)n2c1Cc1ccccc1-2`, the “Ratio IC50” value in the test with CCRF-CEM [1] is reported as 1; in the test with CCRF-CEM [5] it was 0.97. Also, the IC50 with CCRF-CEM [2] is 610 nM; with CCRF-CEM [3] (read-out: IC50), 640 nM; in the test on CCRF-CEM [4] it was 650 nM; in the test with HCT-116, 900 nM; in the test on MX1, 8200 nM.
Turning to `CNC(=O)OCc1c(COC(=O)NC)c(-c2ccc(F)cc2)n2c1Cc1ccccc1-2`, the “Ratio IC50” value in the test with CCRF-CEM [1] came out at 2; in the test with CCRF-CEM [5], 2.2. Also, the half-inhibitory concentration (IC50) with CCRF-CEM [2] stood at 300 nM; in the test with CCRF-CEM [3] (read-out: IC50), 140 nM; in the test with CCRF-CEM [4], 280 nM; with HCT-116, 400 nM; with MX1 it was 740 nM.
Consider `COc1cc(-c2c(CO)c(CO)c3n2-c2ccccc2C3)cc(OC)c1OC`, for which the “Ratio IC50” value with CCRF-CEM [1] turned out to be 0.45; in the test on CCRF-CEM [5], 0.52. The IC50 in the test with CCRF-CEM [2] was found to be 1100 nM; in the test on CCRF-CEM [3] (read-out: IC50) it was 2200 nM; in the test with CCRF-CEM [4] it was 990 nM; in the test with HCT-116 it was 29000 nM; in the test on MX1 it was 17000 nM.
Take `COc1ccc(-c2c(CO)c(CO)c3n2-c2ccccc2C3)cc1`: the IC50 turned out to be 50300 nM in [6]; 55500 nM in the test with PC-3; 1700 nM in the test with CCRF-CEM [2]; 1200 nM in the test on CCRF-CEM [3] (read-out: IC50); 9260 nM in [7]; 45500 nM in test [8]. For the same compound, the IC50 in the test with CCRF-CEM [4] came to 1600 nM; with HCT-116, 6100 nM; with MX1, 11000 nM. In addition, the “Ratio IC50” value in the test with CCRF-CEM [1] is given as 1.4; in the test with CCRF-CEM [5], 1.5.
For `CO[C@@]12[C@H](COC(N)=O)C3=C(C(=O)C(C)=C(N)C3=O)N1C[C@@H]1N[C@@H]12`, in the test on Nucleic Acid, the Activity is 76.5%.
For `CNC(=O)OCc1c(COC(=O)NC)c(-c2ccccc2)n2c1Cc1ccccc1-2`, the “Ratio IC50” value in the test with CCRF-CEM [1] is given as 1.6; in the test on CCRF-CEM [5], 4.7. Further, the IC50 is 1700 nM in the test with CCRF-CEM [2]; 360 nM with CCRF-CEM [3] (read-out: IC50); 550 nM in the test on CCRF-CEM [4]; 750 nM in the test with HCT-116; 5900 nM with MX1.
Consider `OCc1c(CO)c(-c2ccc(F)c(F)c2)n2c1Cc1ccccc1-2`, for which the “Ratio IC50” value in the test with CCRF-CEM [1] and in the test with CCRF-CEM [5] was 1.4 each time. The IC50 came out at 7500 nM in the test on CCRF-CEM [2]; 5200 nM in the test with CCRF-CEM [3] (read-out: IC50); 7500 nM with CCRF-CEM [4]; 11000 nM with HCT-116; 7000 nM in the test on MX1.
Consider `CNC(=O)OCc1c(COC(=O)NC)c(-c2ccc(Cl)cc2)n2c1Cc1ccccc1-2`, for which the “Ratio IC50” value with CCRF-CEM [1] amounted to 0.4; in the test with CCRF-CEM [5], 0.58. The IC50 in the test on CCRF-CEM [2] was determined as 3300 nM; with CCRF-CEM [3] (read-out: IC50), 5700 nM; in the test with CCRF-CEM [4], 2300 nM; with HCT-116 it was 8900 nM; in the test with MX1 it was 9900 nM.
As for `OCc1c(CO)c(-c2ccccc2)n2c1Cc1ccccc1-2`, the “Ratio IC50” value was found to be 1 in the test on CCRF-CEM [1] and 0.9 in the test on CCRF-CEM [5]. Moreover, the IC50 was 220 nM with CCRF-CEM [2]; 250 nM in the test with CCRF-CEM [3] (read-out: IC50); 250 nM in the test on CCRF-CEM [4]; 1900 nM with HCT-116; 1300 nM in the test with MX1.
`CC[C@]1(O)C[C@@H]2CN(CCc3c([nH]c4ccccc34)[C@@](C(=O)OC)(c3cc4c(cc3OC)N(C)[C@H]3[C@@](O)(C(=O)OC)[C@H](OC(C)=O)[C@]5(CC)C=CCN6CC[C@]43[C@@H]65)C2)C1` [VINBLASTINE]: the “Ratio IC50” value with CCRF-CEM [1] is reported as 107; in the test with CCRF-CEM [5], 685.
On to `CNC(=O)OCc1c(COC(=O)NC)c(-c2c(OC)cccc2OC)n2c1Cc1ccccc1-2`, for which the “Ratio IC50” value is 0.97 in the test with CCRF-CEM [1] and 1.1 in the test on CCRF-CEM [5]. For the same compound, the IC50 came out at 720 nM with CCRF-CEM [2]; 640 nM in the test on CCRF-CEM [3] (read-out: IC50); 620 nM in the test on CCRF-CEM [4]; 1100 nM in the test with HCT-116; 5300 nM with MX1.
On to `OCc1c(CO)c(-c2ccc(Cl)cc2)n2c1Cc1ccccc1-2`, for which the “Ratio IC50” value is given as 1 with CCRF-CEM [1] and 0.55 in the test on CCRF-CEM [5]. In addition, the IC50 in the test on CCRF-CEM [2] was 2400 nM; in the test with CCRF-CEM [3] (read-out: IC50), 4300 nM; with CCRF-CEM [4] it was 4500 nM; in the test with HCT-116, 5700 nM; in the test with MX1, 6100 nM.
For `COc1cccc(OC)c1-c1c(CO)c(CO)c2n1-c1ccccc1C2`, the “Ratio IC50” value in the test with CCRF-CEM [1] is recorded as 0.92; in the test with CCRF-CEM [5], 0.76. The IC50 turned out to be 6200 nM in the test with CCRF-CEM [2]; 8100 nM in the test on CCRF-CEM [3] (read-out: IC50); 7500 nM in the test with CCRF-CEM [4]; 43000 nM with HCT-116; 26000 nM in the test on MX1.
As to `CNC(=O)OCc1c(COC(=O)NC)c(-c2ccc(OC)c(OC)c2)n2c1Cc1ccccc1-2`, the “Ratio IC50” value amounted to 1.4 in the test with CCRF-CEM [1] and 1.1 in the test with CCRF-CEM [5]. Besides, the IC50 in the test with CCRF-CEM [2] is 390 nM; in the test on CCRF-CEM [3] (read-out: IC50), 350 nM; in the test on CCRF-CEM [4], 500 nM; in the test on HCT-116 it was 660 nM; in the test with MX1 it was 1800 nM.
Regarding `COc1ccc(-c2c(CO)c(CO)c3n2-c2ccccc2C3)cc1OC`, the “Ratio IC50” value worked out at 1.8 in the test with CCRF-CEM [1] and 1.1 in the test on CCRF-CEM [5]. Moreover, the IC50 with CCRF-CEM [2] came to 1100 nM; in the test on CCRF-CEM [3] (read-out: IC50) it was 1000 nM; in the test on CCRF-CEM [4] it was 1900 nM; in the test with HCT-116, 4300 nM; in the test with MX1 it was 11000 nM.
As for `OCc1c(CO)c(-c2ccc(F)cc2)n2c1Cc1ccccc1-2`, the “Ratio IC50” value amounted to 2.5 in the test on CCRF-CEM [1] and 1.6 in the test on CCRF-CEM [5]. Also, the IC50 in the test on CCRF-CEM [2] was determined as 7200 nM; in the test with CCRF-CEM [3] (read-out: IC50), 4500 nM; in the test with CCRF-CEM [4], 11000 nM; in the test on HCT-116 it was 8700 nM; in the test on MX1 it was 22000 nM.
For the compound `CCc1c(COC(=O)NC)c(COC(=O)NC)c2n1-c1ccccc1C2`, the IC50 was over 50000 nM in test [6]; over 50000 nM in the test with PC-3; 80 nM in the test on CCRF-CEM [2]; 70 nM in the test with CCRF-CEM [3] (read-out: IC50); 11800 nM in [7]; over 50000 nM in test [8]. For the same compound, the results for the IC50 in the test with CCRF-CEM [4], with HCT-116 and in the test on MX1 were 100 nM, 710 nM and 660 nM, respectively. Further, the “Ratio IC50” value in the test on CCRF-CEM [1] was 1.5; with CCRF-CEM [5] it was 1.2.
Regarding `CNC(=O)OCc1c(COC(=O)NC)c2n(c1C)-c1ccccc1C2`, the IC50 in test [6] was over 50000 nM; in the test on PC-3, 27200 nM; with CCRF-CEM [2], 120 nM; with CCRF-CEM [3] (read-out: IC50), 120 nM; in test [7] it was 1450 nM; in [8] it was over 50000 nM. Besides, the IC50 was 63 nM in the test with CCRF-CEM [4], 300 nM with HCT-116 and 340 nM with MX1. The figures for the “Ratio IC50” value with CCRF-CEM [1] and in the test on CCRF-CEM [5] were 0.53 and 0.67, respectively.
For the compound `CNC(=O)OCc1c(COC(=O)NC)c(-c2cc(OC)c(OC)c(OC)c2)n2c1Cc1ccccc1-2`, the figures for the “Ratio IC50” value with CCRF-CEM [1] and with CCRF-CEM [5] were 1.2 and 0.73, respectively. In addition, the IC50 in the test on CCRF-CEM [2] came out at 8400 nM; in the test on CCRF-CEM [3] (read-out: IC50) it was 12000 nM; in the test on CCRF-CEM [4], 14000 nM; with HCT-116, 1900 nM; in the test with MX1, 7200 nM.
In the case of `CC(=O)O[C@H]1C(=O)[C@@]2(C)[C@H]([C@H](OC(=O)c3ccccc3)[C@]3(O)C[C@H](OC(=O)[C@H](O)[C@@H](NC(=O)c4ccccc4)c4ccccc4)C(C)=C1C3(C)C)[C@]1(OC(C)=O)CO[C@@H]1C[C@@H]2O` [PACLITAXEL], the “Ratio IC50” value in the test with CCRF-CEM [1] was determined as 333; with CCRF-CEM [5] it was 1000. Besides, the IC50 with CCRF-CEM [2] was 1200 nM; in the test with CCRF-CEM [3], 1.2 nM; in the test on CCRF-CEM [4] it was 400 nM.
